Values joined by “and” are separate entries in the source; they are usually repeats but may differ in a detail not shown here. Equal values may be shown once. Positions of bridges follow the written chain, without caps; N, C: chain ends. Non-standard residues stand in square brackets, D forms with d. Residues, ends and D or L forms follow the SMILES beside them. *: point of attachment. FITC = O=C1OC2(c3ccc(O)cc3Oc3cc(O)ccc32)c2ccc(NC(=S)*)cc21; R8 = C=CCCCCCC[C@@](C)(N)C(=O)O; S5 = C=CCCC[C@](C)(N)C(=O)O; AEEA = NCCOCCOCC(=O)O
Legend:
ss-RNA miR-21 3´ = experiment: EMSA with single-stranded RNA; format: binding; conditions: fluorescein-labeled peptide 3 μM, oligonucleotide 9 μM
pal-DNA = experiment: EMSA with ds DNA analog of pal-RNA; format: binding; conditions: fluorescein-labeled peptide 3 μM, oligonucleotide 9 μM
Protocol: Electrophoretic mobility shift assays (EMSAs) were performed using a Bio-Rad Mini-Protean gel system paired with a direct current (DC) power source (PowerPac™ HC, Bio-Rad). […] After incubation, bound RNA was resolved from peptide-free RNA using 10% non-denaturing polyacrylamide gels at 120 V in running buffer (25 mM Tris (pH 8.0), 200 mM glycine, 20 mM NaCl) at 4°C for 1 h. Visualization of fluorescent gel-bound species was conducted using a Typhoon Trio + fluorescence scanner (GE Healthcare Life Sciences). For nucleic acid visualization, gels were stained using 2 μl of SYBR™ gold nucleic acid gel dye (Molecular Probes) in 20 ml of TAE buffer (40 mM Tris, 1 mM EDTA, 20 mM acetic acid) for 45 min at RT before being visualized using a FluorChem™ gel documentation system (Alpha Innotech). To assess B3 binding to different ds RNA sequences (Supplementary Figure S20), 6 μl solutions containing hairpin RNA (c = 1 μM) and fluorescein-labeled B3 (c = 2 μM) were incubated in binding buffer (TAE and 10% glycerol) at RT for 1 h, and then resolved using 15% non-denaturing polyacrylamide gels (acrylamide/bis-acrylamide (19:1) in TAE) at 150 V in running buffer (TAE) at 4°C for 1.5 h. Visualization of fluorescent gel-bound species was conducted using a Bio-Rad ChemiDoc (Bio-Rad). […]

[1] = CD spectroscopy, secondary structure content; format: physicochemical; conditions: fluorescein-labeled peptide 75 μM, 10 mM sodium phosphate pH 7.4, CDNN/PEPFIT; for Helix (α-helicity): unbound
Protocol: Spectra of fluorescein-labeled peptides were recorded with a J-715 circular dichroism spectrometer (Jasco) using a stoppered quartz cuvette (1 mm; Hellma). Peptide samples (c = 75 μM) were prepared in buffer: 10 mM disodium hydrogen phosphate, pH 7.4. For each sample, 10 CD spectra were measured between λ = 190 and 260 nm with continuous scan mode (10 mdeg sensitivity, 1.0 nm resolution, 1.0 nm bandwidth, 2 s integration time, 50 nm/min scan rate). Obtained spectra were averaged, then subtracted from a reference buffer spectrum and smoothed using a fast Fourier transform filter (FFT filter). The mean residue ellipticity (Θ) (deg·cm^2·dmol^−1·10^4) was calculated using Formula (2) and plotted against wavelength (λ) (nm). The ratio of secondary structure elements was calculated with CDNN using the PEPFIT set of reference spectra for secondary structure determination ([45],[46]):(2) where [Θ]m = mean molar ellipticity per peptide bond (degree·cm^2·dmol^−1·10^4), Θ = measured ellipticity (degree), d = optical path length (cm), cg = mass concentration (g·l^−1), MRW = mean residue weight, M = molar mass of the peptide (g·mol^−1) and N = number of peptide bonds.

pre-miR-21 = experiment: Pull-down of pre-miR-21 from K562 cells; format: cell-based, human; conditions: biotinylated peptide 10 μM, streptavidin beads, qRT-PCR, triplicate
Protocol: 2 × 10^6 K562 cells were incubated with N-terminally biotinylated peptides (c(peptide) = 10 μM, t = 2.5 h) for uptake on a rotating wheel at 37°C. The cells were extensively washed in PBS and lysed in lysis buffer (25 mM HEPES, pH 7.5, 150 mM NaCl, 0.05% IGEPAL CA-630, 1 mM EDTA) supplemented with 0.5 U/μl RNAse inhibitor (Superase-in, ThermoFisher). The lysate was cleared by centrifugation at 21 000 g at 4°C, an aliquot of the supernatant was removed and re-suspended in Trizol, while the remaining was incubated with streptavidin-coupled magnetic beads (Dynabeads M280, ThermoFisher) on a rotating wheel (2 h, 4°C). After magnetic separation and washing (3× in lysis buffer), the beads were re-suspended in 20 μl lysis buffer, re-suspended in Trizol (ThermoFisher), and 400 ng t-RNA was added per sample as a carrier. RNA was extracted from Trizol using the standard protocol and the qRT-PCR was performed according to a previously published protocol ([62]) using the primers h-miR21-3p-FW ([…]), h-miR21-3p-RV ([…]), h-miR21-5p-FW ([…]), h-miR21-5p-RV ([…]) in a CFX96 real-time machine (Bio-Rad). The relative enrichment was calculated as a ratio of copies in the immunoprecipitate over input normalized to the enrichment of the control peptide D1.

Structure (SMILES)	binding to single-stranded RNA in EMSA (ss-RNA miR-21 3´)	binding to ds DNA analog of pal-RNA in EMSA (pal-DNA)	Random coil [1] [%]	β-Sheet [1] [%]	β-Turn [1] [%]	Helix (α-helicity) [1]	enrichment of pre-miR-21 relative to control peptide D1 (pre-miR-21)
CC(C)C[C@H](NC(=O)[C@]1(C)CCCC=CCCC[C@](C)(NC(=O)[C@H](CCC(=O)O)NC(=O)[C@H](CO)NC(=O)[C@@H]2CCCN2C(=O)[C@H](CO)NC(=O)[C@H](CCCCN)NC(=O)[C@H](Cc2c[nH]cn2)NC(=O)CNC(=O)[C@H](CCCNC(=N)N)NC(=O)[C@]2(C)CCCC=CCCC[C@](C)(NC(=O)[C@H](CCCCN)NC(=O)[C@H](Cc3c[nH]cn3)NC(=O)[C@H](CCCNC(=N)N)NC(=O)[C@H](CCCCN)NC(=O)[C@H](CCCNC(=N)N)NC(=O)[C@H](CCC(N)=O)NC(=O)[C@H](C)NC(=O)[C@H](CCC(N)=O)NC(=O)[C@H](CCCCN)NC(=O)[C@H](CCCCN)NC(=O)COCCOCCNC(=S)Nc3ccc4c(c3)C(=O)OC43c4ccc(O)cc4Oc4cc(O)ccc43)C(=O)N[C@@H](CC(N)=O)C(=O)N[C@@H](CCCNC(=N)N)C(=O)N[C@@H](CCCCN)C(=O)N2)C(=O)N[C@@H](CCCNC(=N)N)C(=O)N[C@@H](CCCNC(=N)N)C(=O)N[C@@H](CO)C(=O)N1)C(=O)N[C@@H](Cc1c[nH]c2ccccc12)C(=O)N[C@@H](Cc1c[nH]cn1)C(=O)N[C@@H](C)C(=O)N[C@@H](CCCNC(=N)N)C(N)=O [B3] ({FITC-AEEA}-KKQAQRKRHK[S5]NRK[S5]RGHKSPSE[S5]RRS[S5]LWHAR-NH2; staple 11-15, 24-28)	did not bind	did not bind	9.3	2.0	13.9	85.0% and 82–85%	4 fold
CC(C)C[C@@H]1NC(=O)[C@@](C)(NC(=O)[C@H](CO)NC(=O)[C@H](CCCNC(=N)N)NC(=O)[C@H](CCCNC(=N)N)NC(=O)[C@H](CCC(N)=O)NC(=O)[C@H](CCC(=O)O)NC(=O)[C@H](CO)NC(=O)[C@@H]2CCCN2C(=O)[C@H](CO)NC(=O)[C@H](CCCCN)NC(=O)[C@H](Cc2c[nH]cn2)NC(=O)CNC(=O)[C@H](CCCNC(=N)N)NC(=O)[C@H](CCC(=O)O)NC(=O)[C@H](CCCCN)NC(=O)[C@H](CCCNC(=N)N)NC(=O)[C@H](CC(N)=O)NC(=O)[C@]2(C)CCCC=CCCCCCC[C@@](C)(NC(=O)[C@H](CCC(N)=O)NC(=O)[C@H](CCCCN)NC(=O)[C@H](CCCCN)NC(=O)COCCOCCNC(=S)Nc3ccc4c(c3)C(=O)OC43c4ccc(O)cc4Oc4cc(O)ccc43)C(=O)N[C@@H](CCC(N)=O)C(=O)N[C@@H](CCCNC(=N)N)C(=O)N[C@@H](CCCCN)C(=O)N[C@@H](CCCNC(=N)N)C(=O)N[C@@H](Cc3c[nH]cn3)C(=O)N[C@@H](CCCCN)C(=O)N2)CCCC=CCCC[C@@](C)(C(=O)N[C@@H](CCCNC(=N)N)C(N)=O)NC(=O)[C@H](Cc2c[nH]cn2)NC(=O)[C@H](Cc2c[nH]c3ccccc23)NC1=O [C1] ({FITC-AEEA}-KKQ[R8]QRKRHK[S5]NRKERGHKSPSEQRRS[S5]LWH[S5]R-NH2; staple 4-11, 28-32)	did not bind	did not bind	47.0	0.2	1.8	81.5% and 82–85%	did not show detectable pre-miR-21 enrichment
CC(C)C[C@@H]1NC(=O)[C@H](CCC(=O)O)NC(=O)[C@H](CO)NC(=O)[C@@](C)(NC(=O)[C@H](CCCNC(=N)N)NC(=O)[C@H](CCC(N)=O)NC(=O)[C@H](CCC(=O)O)NC(=O)[C@H](CO)NC(=O)[C@@H]2CCCN2C(=O)[C@H](CO)NC(=O)[C@H](CCCCN)NC(=O)[C@H](Cc2c[nH]cn2)NC(=O)[C@]2(C)CCCC=CCCCCCC[C@@](C)(NC(=O)[C@H](Cc3c[nH]cn3)NC(=O)[C@H](CCCNC(=N)N)NC(=O)[C@H](CCCCN)NC(=O)[C@H](CCCNC(=N)N)NC(=O)[C@H](CCC(N)=O)NC(=O)[C@H](C)NC(=O)[C@H](CCC(N)=O)NC(=O)[C@H](CCCCN)NC(=O)[C@H](CCCCN)NC(=O)COCCOCCNC(=S)Nc3ccc4c(c3)C(=O)OC43c4ccc(O)cc4Oc4cc(O)ccc43)C(=O)N[C@@H](CC(C)C)C(=O)N[C@@H](CC(N)=O)C(=O)N[C@@H](CCCNC(=N)N)C(=O)N[C@@H](CCCCN)C(=O)N[C@@H](CCC(=O)O)C(=O)N[C@@H](CCCNC(=N)N)C(=O)N2)CCCC=CCCC[C@@](C)(C(=O)N[C@@H](Cc2c[nH]cn2)C(=O)N[C@@H](C)C(=O)N[C@@H](CCCNC(=N)N)C(N)=O)NC1=O [D1] ({FITC-AEEA}-KKQAQRKRH[R8]LNRKER[S5]HKSPSEQR[S5]SEL[S5]HAR-NH2; staple 10-17, 26-30)	–	–	31.2	12.0	9.9	48.5%	–

Reference: article PMC8682738, “Constrained peptides mimic a viral suppressor of RNA silencing” (Nucleic Acids Research, 2021)
